Assay results published in patent US8598383B2, “Pharmaceutical composition for treating or preventing degenerative and inflammatory diseases” (Neurotech Pharmaceuticals Co., Ltd., priority 2006, dated 2013).

Columns and labels:
[1] = system: TNF-alpha gene expression in BV2 cell line; assay: Suppressing effect on gene expression (RT-PCR), TNF-alpha; type: cell-based; settings: gene expression vs LPS control, BV2, 24 hours
Description: (§1) Effects of the 2-hydroxybenzoic acid derivatives on iNOS gene expression in BV2 cell line were evaluated. 100 mm dish was inoculated with 1×10^6 cells of BV2 cell line, and treated with both LPS, inflammation-inducing material, and 1˜100 uM of the 2-hydroxybenzoic acid derivative of the present invention, together, in regular concentration interval. After 24 hours of incubation, RNA was extracted. Extracted RNA was used in reverse transcription and polymerase chain reaction, and expression patterns of TNF-alpha, IL-1beta and iNOS were compared.

gastric mucous membrane = assay: Safety test about induction of gastric mucous membrane damage; type: in vivo; settings: oral, up to 1,000 mg/kg, aspirin as control
Description: Test samples were orally administered at different doses to evaluate the degree of the gastric mucous membrane damage. Aspirin was used as control.
FIG. 2 is results showing degrees of the gastric mucous membrane damage. Test samples were orally administered at indicated doses. […] Indomethacine, ibuprofen and celecoxib were used as control.
Conventional NSAIDs have side effects causing damages to the gastric mucous membrane. Therefore, it was evaluated whether compound 2 having anti-inflammatory effect causes the gastric damage or not. 30, 100 or 300 mg/kg of aspirin was orally administered as control.

[2] = system: IL-1beta gene expression in BV2 cell line; assay: Suppressing effect on gene expression (RT-PCR), IL-1beta; type: cell-based; settings: Mus musculus, BV-2, 24 h, gene expression vs LPS control, BV2, 24 hours
Description: as §1

[3] = system: gastric bleeding induced by 60% EtOH/150 mM HCl; assay: Gastritis induced by alcohol and hydrochloric acid; type: in vivo, rat; settings: oral
Description: FIG. 8 is results showing protecting effect of compound on gastrointestinal bleeding caused by alcohol/hydrochloric acid (EtOH/HCl). A is a picture of normal rat stomach. B is a picture of rat stomach, wherein gastrointestinal bleeding was caused by oral administration of 60% EtOH/150 mM HCl after 200˜250 g of rat was fasted for 24 hours. C is a picture of rat stomach, wherein rat was pre-treated with compound 230 minutes before administration of alcohol/HCl, and stomach was taken out 90 minutes after gastrointestinal bleeding. D is a graph quantifying damaged area to evaluate the degree of stomach injury.
Effect of the 2-hydroxybenzoic acid derivative on gastritis induced by alcohol and hydrochloric acid was evaluated. 200˜250 g of male SD rat was fasted for 24 hours, and 60% EtOH/150 mM HCl was orally administered to induce gastric bleeding (gastric injury). Compound 2 was orally administered according to indicated dose 30 minutes before the gastric bleeding, and stomach was taken out 90 minutes after gastric bleeding to evaluate the degree of gastric injury.

[4] = system: microglia in lumbar ventral horn; assay: Microglia activation in G93A ALS mouse (TOMATO Lectin); type: in vivo; settings: 5 mg/kg/day
Description: G93A (Glycine ? Alanine) transgenic mouse having similar pathophysiological characteristics with ALS (amyotrophic lateral sclerosis) human patient was used to evaluate therapeutic effect of drug in ALS, one of main degenerative brain diseases.
Activation degree of microglia (a marker of inflammation in brain disease model) expressed in the lumbar ventral horn of G93A mouse were evaluated with TOMATO Lectin dye. In G93A mouse, microglia was more activated compared to the wild type mouse.

[5] = system: IL-1alpha in exudation of air pouch; assay: Zymosan air pouch inflammation model, IL-1alpha (ELISA); type: in vivo; settings: 3-300 mg/kg once oral 1 hour before zymosan, 4 hours later
Description: FIG. 13 is graphs showing how much compound 2 decreases the level of IL-1alpha induced by zymosan, one of arthritis animal models. 1% zymosan was administered with air pouch, and compound 2 was once orally administered according to indicated dose 1 hour before administration of zymosan. The level of IL-1alpha in an exudation of air pouch was evaluated by ELISA method 4 hours later.
Anti-inflammation effect of compound 2 in arthritis model was evaluated with zymosan. 0.5 ml of 1% zymosan was administered with air pouch, and 3-300 mg/kg of compound 2 was once orally administered 1 hour before administration of zymosan. Edema, a main symptom of arthritis, and the level of cytokine were observed 4 hours later.

[6] = system: APP/PS1 transgenic mice behavior; assay: Elevated plus maze test in APP/PS1 mice; type: in vivo, mouse; settings: 25 mg/kg/day for 7 months, vs chow only
Description: APP/PS1 transgenic mice were fed chow alone or containing 25 mg/kg/day of compound 2, for 7 months (3.5˜10.5 months). After administration of 7 months, Elevated plus maze test was performed to evaluate the behavior improvement. Elevated plus maze has two open arms (30 cm×6 cm×0.5 cm) and two closed arms (30 cm×6 cm×15 cm), and also has 6 cm×6 cm of center platform. In Elevated plus maze test, mouse was carefully laid in the center with the head of the mouse toward open arm. The time that the mouse spent in the open arm was recorded for 5 minutes (mean±SEM, n=3-5). *, Significant difference from control (APP/PS1 mouse fed with general chow only), p<0.05 using one-way ANOVA according to Student-Neuman-Keuls' test.

[7] = system: TNF-α production in BV2 cell line; assay: Suppressing effect on production of cytokine (ELISA), TNF-α; type: cell-based; settings: Mus musculus, BV-2, level in medium, LPS + 100 uM of sample, 24 hours
Description: (§2) Effects of the 2-hydroxybenzoic acid derivatives on production of cytokine in BV2 cell line were evaluated. 24-well plate was inoculated with 1×10^6 cells of BV2 cell line, and treated with both LPS, inflammation-inducing material, and 100 uM of sample (the 2-hydroxybenzoic acid derivative or comparative drug), together. After 24 hours of incubation, culture medium was collected. The levels of cytokines, TNF-α and IL-6, in the medium were evaluated by ELISA method.

[8] = system: gastric bleeding caused by alcohol; assay: Alcoholic gastritis; type: in vivo, rat; settings: pre-treated 1 hour before alcohol
Description: FIG. 9 is results showing protecting effect of compound 2 on alcoholic gastritis. A is a picture of normal rat stomach. B is a picture of rat stomach, wherein gastrointestinal bleeding was caused by oral administration of ethanol (4 ml/kg) after 250 g of rat was fasted for 24 hours. C is a picture of rat stomach, wherein rat was pre-treated with compound 21 hour before induction of gastrointestinal bleeding, and stomach was taken out 90 minutes after gastrointestinal bleeding. D is a graph quantifying the degree of stomach injury.
Effect of the 2-hydroxybenzoic acid derivative on alcoholic gastritis was evaluated. 250 g of rat was fasted for 24 hours, and alcohol was orally administered to cause gastric bleeding (B).

[9] = system: IL-6 production in BV2 cell line; assay: Suppressing effect on production of cytokine (ELISA), IL-6; type: cell-based; settings: Mus musculus, BV-2, level in medium, LPS + 100 uM of sample, 24 hours
Description: as §2

NSAID-induced gastritis = assay: Gastritis caused by NSAID (indomethacine); type: in vivo, rat; settings: indomethacine 6 hour and 12 hour models; given 1 hour before NSAID
Description: FIG. 10 is results showing protecting effect of compound 2 on gastritis induced by NSAID. 250 g of rat was fasted for 24 hours, and indomethacin was orally administered to cause gastrointestinal bleeding (A and C). Compound 2 was administered 1 hour before administration of NSAID (B and D), and stomach was taken out 6 hours (A and B) or 12 hours (C and D) after gastrointestinal bleeding.
Effect of the 2-hydroxybenzoic acid derivative on NSAID-induced gastritis was evaluated.

## O=C(O)c1cc(NCCc2ccc(C(F)(F)F)cc2)ccc1O [compound 2, 2-hydroxy-5-[2-(4-trifluoromethyl-phenyl)-ethylamino]-benzoic acid]
[1]; Mus musculus, BV-2, 24 h
  inhibition at 100 µM: 63.2%
[1]
  % Inhibition (in 100 uM) TNF-alpha: 63.2%
Gastric mucous membrane
  gastric mucous membrane damage: did not cause damage to the gastric mucous membrane
Gastric mucous membrane; listed as Compound 2
  gastric mucous membrane damage: did not cause the gastric side effect
[2]
  inhibition at 100 µM: 75.1%
[3]
  toxicity in EtOH/HCl gastritis test: did not show any toxicity
[3]; 30 minutes before EtOH/HCl, stomach taken out 90 minutes after
  protection against gastric bleeding: protected stomach against gastric bleeding induction
[4]
  number and activation degree of microglia: decreased the number and activation degree of microglia
[5]
  level of IL-1alpha: decreased in a dose-dependent manner
[6]
  time spent in the open arm: decreased the time for mouse to stay in the open arm
[7]
  inhibition at 100 µM: 62.3%
[8]
  gastric bleeding: significantly reduced gastric bleeding
[9]
  inhibition at 100 µM: 70.3%
NSAID-induced gastritis
  protecting effect on stomach: excellent protecting effect on stomach
